Results from patent publication US12403144B2, “HECT E3 ligase inhibitors and uses thereof” (IFOM FONDAZIONE ISTITUTO FIRC DI ONCOLOGIA MOLECOLARE, priority 2019, dated 2025).
Structures can show the parent of a compound that is named as a salt.

Experiments:
[1] = molecular target: T1, untagged HECT of ITCH (E3 ligase) (Homo sapiens, UniProt Q96J02); test: In vitro ubiquitination assay TR-FRET based, ITCH; type: biochemical; conditions: read-out: percentage of inhibition (ITCH)
T1 construct: using untagged HECT of ITCH (E3 ligase) instead of untagged HECT of NEDD4 wild-type (WT) (E3 ligase); made in house
T1 sequence (Q96J02 569-903 limits assumed): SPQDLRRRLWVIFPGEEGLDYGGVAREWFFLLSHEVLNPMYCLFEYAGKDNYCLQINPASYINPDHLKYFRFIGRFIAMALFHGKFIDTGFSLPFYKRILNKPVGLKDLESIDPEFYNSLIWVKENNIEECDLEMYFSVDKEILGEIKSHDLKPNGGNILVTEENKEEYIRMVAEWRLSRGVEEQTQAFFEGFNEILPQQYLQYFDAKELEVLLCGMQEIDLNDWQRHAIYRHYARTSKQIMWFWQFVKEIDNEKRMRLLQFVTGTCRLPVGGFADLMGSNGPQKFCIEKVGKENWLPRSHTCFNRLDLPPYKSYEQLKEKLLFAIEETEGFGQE
Method: To determine the selectivity of identified NEDD4 inhibitors, it was quantitatively measured the self-ubiquitination process of the E3 HECT ligase belonging to NEDD4 family such as NEDD4L, HECW2 and ITCH in presence or not of some compounds such as 5, 9, 12, 29, 42, 45, 56, 58, 61, 77, 78, 85 and 94 employing TR-FRET based assays.
The assay was performed as described above in the paragraph titled “In vitro ubiquitination assay TR-FRET based” under the heading “2.1. NEDD4 UBIQUITINATION ASSAYS” using untagged HECT of ITCH (E3 ligase) instead of untagged HECT of NEDD4 wild-type (WT) (E3 ligase). In this case, final E1, E2 and E3 concentrations in the assay buffer (Tris-HCl pH 7.6 25 mM, NaCl 100 mM, MgCl2 5 mM and Tween 0.01%) were 30, 350 and 60 nanomolars, respectively. Untagged HECT of ITCH (E3 ligase) enzyme was produced and purified as reported in E. Maspero et al. Methods Mol Biol. 1449:153-60 (2016) and in E. Maspero et al. EMBO Reports 12:342-349(2011).

[2] = molecular target: T2, untagged HECT of NEDD4 wild-type (WT) (E3 ligase) (Homo sapiens, UniProt P46934); test: In vitro ubiquitination assay TR-FRET based (self-ubiquitination of NEDD4); type: biochemical; conditions: for inhibition at 11 µM: pre-incubated for 1 hour, AUC of 120 minutes kinetic, read-out: percentages of inhibition (NEDD4)
T2 construct: untagged HECT of NEDD4 wild-type (WT) (E3 ligase); made in house
T2 sequence (P46934 519-900 isoform P46934-4 limits assumed): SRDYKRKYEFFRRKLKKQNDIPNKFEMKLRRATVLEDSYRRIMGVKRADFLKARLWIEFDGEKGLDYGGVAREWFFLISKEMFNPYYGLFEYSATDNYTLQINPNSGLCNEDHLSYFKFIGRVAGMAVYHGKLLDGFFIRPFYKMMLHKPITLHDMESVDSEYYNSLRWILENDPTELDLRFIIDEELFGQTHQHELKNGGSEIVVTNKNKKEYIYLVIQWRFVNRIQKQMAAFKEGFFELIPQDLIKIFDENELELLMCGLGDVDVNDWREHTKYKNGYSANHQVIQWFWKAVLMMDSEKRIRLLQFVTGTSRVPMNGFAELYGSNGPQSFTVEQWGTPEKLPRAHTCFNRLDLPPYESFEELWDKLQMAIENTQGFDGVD
Summary of the method: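 Mix of E1, His-UBE2D3 and untagged NEDD4 HECT (final 30, 350, 50 nM) with Eu-cryptate/Cy5/unlabelled ubiquitin in pH 7.6 Tris buffer, compounds (100–0.005 μM dilution series) pre-incubated 1 h, then started with ATP. 665/620 nm TR-FRET followed 120 min; % inhibition from AUC versus DMSO, no-ATP background.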

| Compound | inhibition at 11 µM [1] [%] | inhibition at 11 µM [2] [%] | inhibition of enzymatic activity, TR-FRET kinetic assay (% of signal/background during the time) ([2]; FIG. 1, HECT NEDD4 WT, concentrations indicated in the figure) |
| --- | --- | --- | --- |
| CCOC(=O)/C=C/CCNCCCN1c2ccccc2CCc2ccc(Cl)cc21 [Compound 5, Ethyl (E)-5-[3-(3-chloro-10,11-dihydro-5H-dibenzo[b,f]azepin-5-yl)propylamino]pent-2-enoate maleate] | < 15 | > 50 |  |
| CON(C)C(=O)/C=C/CN(C)CCCCN1c2ccccc2CCc2ccc(Cl)cc21 [Compound 9, (E)-4-[4-(3-Chloro-10,11-dihydro-5H-dibenzo[b,f]azepin-5-yl)butyl-methyl-amino]-N-methoxy-N-methyl-but-2-enamide] | < 20 | > 50 |  |
| CCOC(=O)/C=C/CNCCCCN1c2ccccc2CCc2ccc(Cl)cc21.O=C(O)/C=C\C(=O)O [Compound 12, Ethyl (E)-4-[4-(3-chloro-10,11-dihydro-5H-dibenzo[b,f]azepin-5-yl)butylamino]but-2-enoate maleate] | < 5 | > 50 | dose dependent inhibition of enzymatic activity |
| CCOC(=O)/C=C/CNCCCCN1c2ccccc2C(=O)N(C)c2ccc(Cl)cc21 [Compound 29, Ethyl (E)-4-{[4-(7-chloro-10-methyl-11-oxo-10,11-dihydro-5H-dibenzo[b,e][1,4]diazepin-5-yl)butyl]amino}but-2-enoate maleate] | < 5 | > 50 |  |
| CCOC(=O)/C=C/CNCCCCN1c2cc(Cl)ccc2C(=O)N(C)c2ccccc21 [Compound 42, Ethyl (E)-4-{[4-(3-chloro-10-methyl-11-oxo-10,11-dihydro-5H-dibenzo[b,e][1,4]diazepin-5-yl)butyl]amino}but-2-enoate maleate] | < 15 | > 50 |  |
| CCOC(=O)/C=C/CNCCCCN1c2ccccc2C(=O)N(Cc2ccccc2)c2ccc(Cl)cc21 [Compound 45, Ethyl (E)-4-{[4-(10-benzyl-7-chloro-11-oxo-10,11-dihydro-5H-dibenzo[b,e][1,4]diazepin-5-yl)butyl]amino}but-2-enoate maleate] | < 5 | > 50 |  |
| CCOC(=O)/C=C/CNCCCCN1c2cc(Cl)ccc2C(=O)N(Cc2ccccc2)c2ccccc21 [Compound 56, Ethyl (E)-4-((4-(10-benzyl-3-chloro-11-oxo-10,11-dihydro-5H-dibenzo[b,e][1,4]diazepin-5-yl)butyl)amino)but-2-enoate maleate] | < 15 | > 50 |  |
| COC(=O)/C=C/CN(C)CCCCN1c2cc(Cl)ccc2C(=O)N(Cc2ccccc2)c2ccccc21 [Compound 58, Methyl (E)-4-{[4-(10-benzyl-3-chloro-11-oxo-10,11-dihydro-5H-dibenzo[b,e][1,4]diazepin-5-yl)butyl](methyl)amino}but-2-enoate maleate] | < 15 | > 50 |  |
| CN(C/C=C/C#N)CCCCN1c2cc(Cl)ccc2C(=O)N(Cc2ccccc2)c2ccccc21 [Compound 61, (E)-4-{[4-(10-benzyl-3-chloro-11-oxo-10,11-dihydro-5H-dibenzo[b,e][1,4]diazepin-5-yl)butyl](methyl)amino}but-2-enenitrile maleate] | < 5 | > 50 |  |
| C#CCON(C)C(=O)/C=C/CN(C)CCCCN1c2ccccc2CCc2ccc(Cl)cc21 [Compound 77, (E)-4-[4-(3-Chloro-10,11-dihydro-5H-dibenzo[b,f]azepin-5-yl)butyl-methyl-amino]-N-methyl-N-prop-2-ynoxy-but-2-enamide maleate] | < 5 | > 50 |  |
| CONC(=O)/C=C/CNCCCCN1c2ccccc2CCc2ccc(Cl)cc21 [Compound 78, (E)-4-[4-(3-Chloro-10,11-dihydro-5H-dibenzo[b,f]azepin-5-yl)butylamino]-N-methoxy-but-2-enamide maleate] | < 20 | > 50 |  |
| CONC(=O)/C=C/CN(C)CCCCN1c2ccccc2CCc2ccc(Cl)cc21 [Compound 85, (E)-4-[4-(3-Chloro-10,11-dihydro-5H-dibenzo[b,f]azepin-5-yl)butyl-methyl-amino]-N-methoxy-but-2-enamide maleate] | < 25 | > 50 |  |
| CN(C/C=C/C(=O)OCCOCCOCCOCCNC(=O)CCCC[C@@H]1SC[C@@H]2NC(=O)N[C@@H]21)CCCCN1c2ccccc2CCc2ccc(Cl)cc21 [Compound 94, 2-[2-(2-{2-[5-((3aS,4S,6aR)-2-Oxo-hexahydro-thieno[3,4-d]imidazol-4-yl)-pentanoylamino]-ethoxy}-ethoxy)-ethoxy]-ethyl (E)-4-{[4-(3-chloro-10,11-dihydro-dibenzo[b,f]azepin-5-yl)-butyl]-methyl-amino}but-2-enoate] | < 15 | > 50 |  |
